The subject of data set [1] is hCMEC/D3 cells. In words: Quantitative analysis of ezrin (and other proteins) recruitment under Nm bacterial colonies. The conditions noted are these: for ezrin recruitment / ezrin-containing cortical plaques under Nm colonies after siRNA: infection three days after transfection.
Source text: The recruitment efficiency was estimated by determining the proportion of colonies positive for the indicated protein of interest. At least 50 colonies were observed per coverslip. Each experiment was repeated several times in duplicate or triplicate. Data was examined for significance using Student's t-test.
(§2) The day before the infection, hCMEC/D3 cells were serum-starved in EBM-2 medium containing 0.1% Bovine Serum albumin (BSA). The day of infection, bacteria from an overnight culture were adjusted to OD600=0.05 and incubated for 2 h at 37° C. in pre-warmed starvation medium. Bacteria were added to cells at a multiplicity of infection (MOI) of 100 and allowed to adhere for 30 minutes. Unbound bacteria were washed with fresh medium and infection was allowed to proceed for 2 h. When needed, drugs were added to cell culture 1 h before infection. Bacteria were tested for growth and aggregation. […] The OD600 was then measured after 1, 2, 3, 4 and 8 h. Aggregation was determined after 2 h of incubation in EBM2, 0.1% BSA in the presence or absence of 100 μM isoproterenol at 37° C. in a 5% CO2 atmosphere under constant shaking.
For each Nm strain, the recruitment efficiency was estimated by determining the proportion of colonies that efficiently recruited the protein of interest in a “honeycomb shape” just under the colonies. […] At least 50 colonies were scrutinized per coverslip. Each experiment was repeated several times (at least 3). Data was examined for significance using Student's t-test.
Data set [2] deals with N. meningitidis. The experiment in a line: Nm growth in culture and bacterial aggregation. The conditions noted are these: 100 μM isoproterenol; data not shown.
Data set [3] concerns hCMEC/D3 cells. The experiment in a line: Growth (size) of Nm colonies on cells under flow. It counts as cell-based, human. As for the experimental part: (§1) hCMEC/D3 cells were grown on disposable flow chambers (15 μ-Slide VI, IBIDI) coated with 5 μg/cm^2 of rat-tail collagen type I. For experiments investigating Nm colony growth under shear stress, 10^7 bacteria were introduced into the flow chamber and allowed to adhere for […] without flow. Subsequently, a flow corresponding to a shear stress of 0.2 dyn/cm^2 was applied using a syringe pump (Harvard Apparatus). For adhesion assays under shear stress, 10^7 bacteria were allowed to adhere for 20 min under a shear stress of 0.04 dyn/cm^2, then the chambers were washed 1 min under a shear stress of 1 dyn/cm^2 (Mairey et al., 2008. J Exp Med 203, 1939-1950).
GFP expression in bacteria was induced by adding 1 mM IPTG in EBM2, 0.1% BSA. For experiments aimed at determining the growth of colonies under shear stress, 107 bacteria were then introduced into the flow chamber and allowed to adhere for 20 min without flow. Subsequently, a flow corresponding to a shear stress of 0.2 dyn/cm2 was applied using a syringe pump (Harvard Apparatus). For adhesion assays under shear stress, […] were introduced into the flow chamber and allowed to adhere for 20 min under a shear stress of 0.04 dyn/cm2, subsequently the chamber was washed 1 min under a shear stress of 1 dyn/cm2, Fluorescent bacteria in the chambers were observed using an Olympus CKX41 inverted microscope with a 20× objective, equipped with a shutter for the fluorescence I amp and a Hamamatsu ORCA285 CCD camera. Images were collected and processed using the Openlab software (Improvision). The field under observation corresponded to a surface of 425 μm by 320 μm with a resolution of 0.63 μm per pixel. Images were analyzed using the lmageJ software.

In data set [4] the test system is hCMEC/D3 cells. The experiment in a line: Static adhesion of Nm (absence of flow). The conditions noted are these: isoproterenol pre-treatment.
Procedure: as §2
In data set [5] the test system is hCMEC/D3 cells. In words: Nm adhesion under shear stress (under flow). The format is cell-based, human. The settings on record: pre-treatment with 10 μM isoproterenol, shear stress 0.04 dyn/cm^2. As to the method:
as §1
GFP expression in bacteria was induced by adding 1 mM IPTG in EBM2, 0.1% BSA. […] For adhesion assays under shear stress, […] were introduced into the flow chamber and allowed to adhere for 20 min under a shear stress of 0.04 dyn/cm2, subsequently the chamber was washed 1 min under a shear stress of 1 dyn/cm2, Fluorescent bacteria in the chambers were observed using an Olympus CKX41 inverted microscope with a 20× objective, equipped with a shutter for the fluorescence I amp and a Hamamatsu ORCA285 CCD camera. […] Images were analyzed using the lmageJ software.

For data set [6], the system named is hCMEC/D3 cell monolayers. In words: Nm transmigration assay and cell-cell junction gaps. It counts as cell-based, human. As to the method: hCMEC/D3 cells were grown on 3 μm pore size MilliCell® inserts and infected at a MOI of 10, corresponding to 10^6 bacteria per insert. Four hours after infection, inserts were placed in a well with fresh medium. After additional 30 min, the number of bacteria, which had crossed the cell monolayer was determined by plating the content of the well and counting the number of colony forming units. To estimate the surface and number of macroscopic cell-cell junction openings, MilliCell® inserts were fixed in 4% PFA and immunostained for VE-cadherin and actin, Several baso-lateral cross-sections of each insert were acquired using a Leica SP5 confocal microscope. Surface and number of gaps within the hCMEC/D3 cell monolayer was determined using Leica Application Suite-AF (LAS-AF) software. Data were expressed as the number of gaps per 4×10 ^5 μm^2 of hCMEC/D3 cell monolayer surface. The size of gaps was determined using the apparent size of a Nm diplococcus as surface unit (approximately 1.7 μm^2).
Briefly, hCMEC/D3 cells were grown on 3 μm pore size MilliCell® inserts and infected at a MOI of 10 (10^6 bacteria per insert). […] After 30 min, the number of bacteria, which had crossed the monolayer of endothelial cells, was then measured by plating the content of dilutions of the lower compartment on agar plates and counting the number of colony forming units (CFU). […]

Entries after “also recorded” stand apart in the source; their conditions may differ.

On to “βarr1 and βarr2 siRNAs: small interfering RNAs targeting human βarrestin-1 (SEQ ID NO: 4) and βarrestin-2 (SEQ ID NO: 5) (guide 1 AAAGCCUUCUGCGCGGAGAAU; guide 2 GGCUUGUCCUUCCGCAAAGAC; listed as RNA, chemistry not given here)”, for which the “recruitment of VE-cadherin, p120-catenin, F-actin and ezrin into cortical plaques after siRNA” value in data set [1] (siRNA-treated Nm-infected hCMEC/D3 cells) was “markedly and simultaneously affected”. Also, in data set [1] (siRNA-treated hCMEC/D3 cells), the “Src recruitment under Nm colonies after siRNA” value is recorded as “markedly reduced” and the “ezrin recruitment / ezrin-containing cortical plaques under Nm colonies after siRNA” value was “decrease”.

On to `CC(C)NCC(O)c1ccc(O)c(O)c1` (centres unmarked) [isoproterenol], for which the “direct inhibition of Nm growth in culture or of bacterial aggregation properties” value in data set [2] is given as “not due to a direct inhibition”. Besides, the “proportion of small colonies (≤12 μm^2, about 4 bacteria) under flow” value in data set [3] (preincubation of cells for 1 h with 10 μM before perfusion of bacteria, control 20% after 4 h) was “≈ 70%”. Moreover, the “proportion of large colonies (48 μm^2 or more, ≥16 bacteria) under flow” value in data set [3] (preincubation of cells for 1 h with 10 μM before perfusion of bacteria, control about 50% after 4 h) was about 10%. In addition, the “bacterial adhesion in static conditions (absence of flow)” value in data set [4] is “No significant difference; also recorded: did not reduce; also recorded: similar”. Moreover, the “effect on Nm-induced ezrin recruitment” value in data set [1] (hCMEC/D3 cells pre-treated with agonist for 2 h before Nm inoculation, saturating (10×KD) concentrations) is listed as “showed an effect”. In addition, the “number of ezrin-containing cortical plaques” value in data set [1] (isoproterenol dose response, hCMEC/D3 cells) is reported as “dose-dependent reduction”. Besides, the “reduction of bacterial adhesion / number of colonies forming under flow” value in data set [5] was 40%. Besides, in data set [6] (isoproterenol pre-treatment 10 μM, 1 h, gaps of all size), the “number of cell-cell junction gaps induced by Nm” value is on record as “noticeably reduced”. The “number of meningococci crossing the monolayer (lower chamber of transwells)” value in data set [6] (isoproterenol pre-treatment 1 h, 10 μM) is given as “markedly reduced”.

`CC(C)NCC(O)COc1cccc2ccccc12` (centres unmarked) [propranolol]: in data set [1] (100 nM propranolol added during pre-incubation with 10 μM isoproterenol), the “reversal of the effect of isoproterenol pre-treatment on Nm-promoted ezrin recruitment” value is listed as “blocked the effect of isoproterenol”. Further, in data set [1] (preincubation with saturating propranolol alone), the “number of ezrin-containing cortical plaques elicited by Nm, agent alone” value is “no effect”.

Turning to `C=C[C@@]1(C)CC(=O)[C@]2(O)[C@@]3(C)[C@@H](O)CCC(C)(C)[C@@H]3[C@H](O)[C@H](OC(C)=O)[C@@]2(C)O1` [forskolin], the “number and size of Nm colonies under flow compared to control conditions” value in data set [3] (pre-incubation 1 h) was “no significant effect”.

On to “GRK2 siRNA: small interfering RNA targeting human GRK2 (SEQ ID NO: 6) (guide AAGAAGUACGAGAAGCUGGAGUU; chemistry not given here)”, for which the “ezrin recruitment / ezrin-containing cortical plaques under Nm colonies after siRNA” value in data set [1] (siRNA-treated hCMEC/D3 cells) is recorded as “inhibited”. For the same compound, the “βarr2 recruitment under Nm colonies after siRNA” value in data set [1] (siRNA-treated hCMEC/D3 cells, βarr2-GFP readout) is listed as “inhibited”.

(Values after patent US20190211066A1 (INSTITUT NATIONAL DE LA SANTE ET DE LA RECHERCHE M EDICALE …, priority 2010, published 2019).)
